According to patent publication EP0661259B1, “Substituted (5,6)-dihydronaphthalenyl compounds having retinoid-like activity” (BRISTOL-MYERS SQUIBB COMPANY, priority 1994, dated 1995):
Like-named read-outs stand apart in the source and are kept apart here.

Experiments:
[1] = system: rhino mouse; test: Rhino mouse utriculi reduction assay; assay type: in vivo, female hairless rhino mice (hr^rh/hr^rh); details: concentration to reach 30% utriculi reduction; topical in ethanol vehicle (50ul) to dorsal area once daily for 5 days; tested range 0.00033 mM to 16.5 mM
Experimental: Representatives from compounds of formula I were tested for their effect on utriculi reduction on rhino mouse and directly compared to all-trans retinoic acid.
Six to nine week old female hairless rhino mice (hr^rh/hr^rh) were produced in the Bristol-Myers Squibb colony. Test retinoids in ethanol vehicle (50ul) were applied to the dorsal area (approximately 1.5 x 3 cm^2) of rhino mice once daily for 5 days (Monday to Friday). For various retinoids, a dose response was obtained with concentrations ranging from 0.00033 mM to 16.5 mM. The animals were sacrificed on the following Monday by CO2 inhalation. A 7/8" full thickness punch was taken from the central dorsal area of each animal. The epidermis of the biopsy was removed from the dermis after incubation in 0.5% acetic acid overnight at 4°C. The separated epidermis was then fixed in formalin, dehydrated with ethanol, and cleared in xylene. To determine the utriculi diameter, each epidermis sheet was placed on a glass slide in xylene. For each specimen, the diameter of 40 utricules was measured with an image analysis system (IBM PC, Image Measure program and Olympus microscope with video camera). % Utriculi reduction was calculated as (1 -(utriculi diameter in the test group)/(utriculi diammeter in the ethanol control group))× 100% [formula] […]

[2] = system: lung line L2987; test: Cytotoxicity assay (alamarBlue viability); assay type: cell-based; details: Homo sapiens
Experimental: Figure 1, 2 and 3 are the cytotoxicity dose response curves for lung line L2987. […] Briefly, the assayed involved plating 1000 cells per well in a volume of 120 µL in a 96 well flat-bottom dish (Corning) on day -1. Twenty-four hours later the appropriate dilution of a compound of formula I was added in a volume of 30 µL complete medium (final volume 150 µL). The plates were sealed with a plate sealer (Dynatech Labs) to prevent evaporation. On day 5 the mylar film was removed and 15 µL of sterile alamarBlue was added to each well and the cells were incubated 37 °C 5% CO2 for two hours. Using a Vmax plate reader the optical density for each well was determined having the OD570 subtracted from the OD600. The 100% signal was determined for cells grown in complete medium containing only 0.5% DMSO. All wells were set-up in triplicate and the mean values were plotted in Figures 1, 2 and 3.

[3] = L2987, L2987 experiment 2, 1000 cells per well, compound added after 24 h, read on day 5, read-out: IC50

CC1(C)C=C(c2ccccc2)c2cc(C=Cc3ccc(C(=O)O)cc3)ccc21 [I^33a, 4-[2-(1,1-dimethyl-3-phenyl-1H-inden-5-yl)vinyl]benzoic acid]
ED30 [1]: 0.86

CC1(C)CC=C(c2ccccc2)c2cc(C(=O)Oc3ccc(C(=O)O)cc3)ccc21 [I^10a]
IC50 [2, 3]: 47 µM

CC1(C)C=C(c2ccccc2)c2cc(C(=O)Nc3ccc(C(=O)O)cc3)ccc21 [I^30a, 4-[(1,1-Dimethyl-3-phenyl-1H-indene-5-carbonyl)amino]benzoic acid]
ED30 [1]: 2.35 | IC50 [2, 3]: 60 µM

CC1(C)CC=C(c2ccccc2)c2cc(COc3ccc(C(=O)O)cc3)ccc21 [I^26a, 4-[[[(5,6-Dihydro-5,5-dimethyl-8-phenyl)-2-naphthalenyl]methyl]oxy]benzoic acid]
IC50 [2, 3]: 48 µM

CC1=C(/C=C/C(C)=C/C=C/C(C)=C/C(=O)O)C(C)(C)CCC1 [All trans retinoic acid, reference compound]
IC50 ([2]; L2987): 68 µM

CC1(C)CC=C(c2ccccc2)c2cc(C(=O)Nc3ccc(C(=O)O)cc3)ccc21 [I^4a]
IC50 [2, 3]: 28 µM

CC1(C)CC=C(c2ccccc2)c2cc(C(=O)Sc3ccc(C(=O)O)cc3)ccc21 [I^12a]
IC50 [2, 3]: > 100 µM
